Assay: Liver microsome stability test, human
Format: in vitro ADME
Details: human liver microsomes 0.5 mg/ml, compound 1 μM, NADPH 1 mM, within 60 minutes
Procedure: The compounds of the present disclosure were subjected to a liver microsome stability test. The compounds to be tested were co-incubated with liver microsomes of different species with or without the addition of NADPH. The final concentration of the compounds to be tested in the test system was 1 μM. The final concentration of NADPH was 1 mM, and the final concentration of liver microsomes was 0.5 mg/ml.

Compound | CLint scaled at 1 μM [mL/min/kg]
CC(C)c1ccc(N2CC(N(C)S(C)(=O)=O)C2)c2cnc(Nc3ccnc(N4CC[C@@H](O)[C@@H](F)C4)n3)cc12 [Compound P39a] | < 8.6
CC(C)c1ccc(N2C[C@H](CS(C)(=O)=O)[C@H]2C)c2cnc(Nc3ccnc(-c4cnn(S(=O)(=O)C5CC5)c4)n3)cc12 [Compound H12] | 14.2
